In patent US11214803B2, “Modulators of YAP1 expression” (Ionis Pharmaceuticals, Inc., priority 2019, dated 2022):
Strand notation (5' to 3'): a small letter for the sugar, then the base; units joined by * are phosphorothioate-linked, units joined directly phosphodiester-linked; [ ] holds rarer units or linkages, { } end groups; capitals alone tell only the bases. k = constrained ethyl (cEt); [5mC] = 5-methylcytosine; d = 2'-deoxy (DNA)

Tested on: Yap1 mRNA
Assay: Dose-dependent inhibition of human Yap1 in A-431 cells (Example 7, 10,000 cells per well, RTS36584)
Assay type: cell-based
Settings: free uptake
Description: Modified oligonucleotides described in the studies above were tested at various doses in A-431 cells. Cultured A-431 cells at a density of 10,000 cells per well were treated using free uptake with modified oligonucleotides diluted to concentrations described in the tables below. After approximately 48 hours, Yap1 mRNA levels were measured as previously described using the Human Yap1 primer-probe set RTS36584. Yap1 mRNA levels were normalized to total RNA content, as measured by RIBOGREEN®. Results are presented in the tables below as percent control of the amount of Yap1 mRNA relative to untreated control cells (% UTC). IC50s were calculated using a linear regression on a log/linear plot of the data in excel.

[1] = Table 61, 15.6 nM, A-431 cells 10,000 cells per well, 48 hours
[2] = Table 61, 62.5 nM, A-431 cells 10,000 cells per well, 48 hours
[3] = Table 61, 4000.00 nM, A-431 cells 10,000 cells per well, 48 hours
[4] = Table 61, A-431 cells 10,000 cells per well
[5] = Table 58, 15.6 nM, A-431 cells 10,000 cells per well, 48 hours
[6] = Table 58, 62.5 nM, A-431 cells 10,000 cells per well, 48 hours
[7] = Table 58, 4000.00 nM, A-431 cells 10,000 cells per well, 48 hours
[8] = Table 58, A-431 cells 10,000 cells per well
[9] = 15.6 nM, A-431 cells, 10,000 cells per well, approximately 48 hours
[10] = 62.5 nM, A-431 cells, 10,000 cells per well, approximately 48 hours
[11] = 4000.00 nM, A-431 cells, 10,000 cells per well, approximately 48 hours
[12] = A-431 cells, approximately 48 hours, linear regression on log/linear plot

958758 (k[5mC]*kT*kA*dT*dT*d[5mC]*dA*dG*dT*dG*dA*dT*d[5mC]*kT*kG*k[5mC]; antisense) [compound 958758]
Yap1 mRNA, % UTC (Table 59, 15.6 nM, A-431 cells 10,000 cells per well, 48 hours): 83 % UTC | Yap1 mRNA, % UTC (Table 59, 62.5 nM, A-431 cells 10,000 cells per well, 48 hours): 66 % UTC | Yap1 mRNA, % UTC (Table 59, 4000.00 nM, A-431 cells 10,000 cells per well, 48 hours): 12 % UTC | IC50 (Table 59, A-431 cells 10,000 cells per well): 100 nM

958569 (kA*kG*k[5mC]*d[5mC]*dT*dT*dA*dG*dA*dG*dT*d[5mC]*dA*kA*kT*kT; antisense) [compound 958569]
Yap1 mRNA, % UTC [1]: 82 % UTC | Yap1 mRNA, % UTC [2]: 49 % UTC | Yap1 mRNA, % UTC [3]: 7 % UTC | IC50 [4]: 100 nM

958457 (antisense kG*kT*k[5mC]*dG*dA*dA*dG*dA*dT*dG*d[5mC]*dT*dG*kA*kG*k[5mC]) [compound 958457]
Yap1 mRNA, % UTC [5]: 91 % UTC | Yap1 mRNA, % UTC [6]: 50 % UTC | Yap1 mRNA, % UTC [7]: 13 % UTC | IC50 [8]: 100 nM

958568 (kT*kA*kT*dG*dA*dG*dT*dG*dA*dT*d[5mC]*dA*dA*k[5mC]*k[5mC]*kT; antisense) [compound 958568]
Yap1 mRNA, % UTC (Table 60, 15.6 nM, A-431 cells 10,000 cells per well, 48 hours): 88 % UTC | Yap1 mRNA, % UTC (Table 60, 62.5 nM, A-431 cells 10,000 cells per well, 48 hours): 65 % UTC | Yap1 mRNA, % UTC (Table 60, 4000.00 nM, A-431 cells 10,000 cells per well, 48 hours): 21 % UTC | IC50 (Table 60, A-431 cells 10,000 cells per well): 100 nM

958799 (kA*kT*kT*dA*d[5mC]*dT*d[5mC]*dA*dA*dT*d[5mC]*dA*dT*kG*kG*kT; antisense) [compound 958799]
Yap1 mRNA, % UTC [1]: 88 % UTC | Yap1 mRNA, % UTC [2]: 53 % UTC | Yap1 mRNA, % UTC [3]: 10 % UTC | IC50 [4]: 100 nM

958625 (kT*kG*k[5mC]*dT*dG*dG*dG*dA*dT*dT*dG*dA*dT*kA*kT*kT; antisense) [compound 958625]
Yap1 mRNA, % UTC [9]: 86 % UTC | Yap1 mRNA, % UTC [10]: 59 % UTC | Yap1 mRNA, % UTC [11]: 17 % UTC | IC50 [12]: 100 nM

958547 (k[5mC]*kA*k[5mC]*dA*dT*dA*d[5mC]*dT*d[5mC]*dT*dA*dG*dT*kT*kA*k[5mC]; antisense) [compound 958547]
Yap1 mRNA, % UTC [5]: 98 % UTC | Yap1 mRNA, % UTC [6]: 74 % UTC | Yap1 mRNA, % UTC [7]: 22 % UTC | IC50 [8]: 200 nM

958752 (kG*kA*kA*dT*dT*dT*dT*dT*dA*dG*dT*d[5mC]*d[5mC]*kA*kG*kT; antisense) [compound 958752]
Yap1 mRNA, % UTC [5]: 102 % UTC | Yap1 mRNA, % UTC [6]: 66 % UTC | Yap1 mRNA, % UTC [7]: 9 % UTC | IC50 [8]: 100 nM

958550 (k[5mC]*k[5mC]*kT*dG*dT*dA*dG*dA*d[5mC]*dA*d[5mC]*dA*dT*kA*k[5mC]*kT; antisense) [compound 958550]
Yap1 mRNA, % UTC [9]: 91 % UTC | Yap1 mRNA, % UTC [10]: 60 % UTC | Yap1 mRNA, % UTC [11]: 10 % UTC | IC50 [12]: 100 nM

958579 (kA*kT*k[5mC]*dT*dT*dA*dA*dT*d[5mC]*dT*dG*dT*dG*kG*k[5mC]*kT; antisense) [compound 958579]
Yap1 mRNA, % UTC [1]: 85 % UTC | Yap1 mRNA, % UTC [2]: 52 % UTC | Yap1 mRNA, % UTC [3]: 12 % UTC | IC50 [4]: 100 nM

958526 (kA*kG*kT*dA*dA*dG*dA*dA*d[5mC]*dA*dA*dT*d[5mC]*kT*kT*kG; antisense) [compound 958526]
Yap1 mRNA, % UTC (Table 57, 15.6 nM, A-431 cells 10,000 cells per well, 48 hours): 118 % UTC | Yap1 mRNA, % UTC (Table 57, 62.5 nM, A-431 cells 10,000 cells per well, 48 hours): 83 % UTC | Yap1 mRNA, % UTC (Table 57, 4000.00 nM, A-431 cells 10,000 cells per well, 48 hours): 17 % UTC | IC50 (Table 57, A-431 cells 10,000 cells per well): 200 nM

958757 (kG*kT*kG*dA*dT*d[5mC]*dT*dG*d[5mC]*dA*d[5mC]*dA*dT*kT*kG*kT; antisense) [compound 958757]
Yap1 mRNA, % UTC [5]: 110 % UTC | Yap1 mRNA, % UTC [6]: 89 % UTC | Yap1 mRNA, % UTC [7]: 27 % UTC | IC50 [8]: 300 nM

958536 (kA*kG*kG*dG*dT*d[5mC]*dA*dA*dT*dT*dT*dT*d[5mC]*kA*kG*k[5mC]; antisense) [compound 958536]
Yap1 mRNA, % UTC (Table 56, 15.6 nM, A-431 cells 10,000 cells per well, 48 hours): 94 % UTC | Yap1 mRNA, % UTC (Table 56, 62.5 nM, A-431 cells 10,000 cells per well, 48 hours): 67 % UTC | Yap1 mRNA, % UTC (Table 56, 4000.00 nM, A-431 cells 10,000 cells per well, 48 hours): 16 % UTC | IC50 (Table 56, A-431 cells 10,000 cells per well): 140 nM

958727 (kA*kT*k[5mC]*dT*dG*dT*d[5mC]*dA*dG*dT*dT*dA*dT*k[5mC]*k[5mC]*kT; antisense) [compound 958727]
Yap1 mRNA, % UTC [5]: 90 % UTC | Yap1 mRNA, % UTC [6]: 42 % UTC | Yap1 mRNA, % UTC [7]: 8 % UTC | IC50 [8]: 100 nM

958549 (kT*kG*kT*dA*dG*dA*d[5mC]*dA*d[5mC]*dA*dT*dA*d[5mC]*kT*k[5mC]*kT; antisense) [compound 958549]
Yap1 mRNA, % UTC [9]: 98 % UTC | Yap1 mRNA, % UTC [10]: 78 % UTC | Yap1 mRNA, % UTC [11]: 28 % UTC | IC50 [12]: 300 nM
